Data taken from ChEMBL document CHEMBL5385934, “Identification of two novel chemical classes of Autotaxin (ATX) inhibitors using Enalos Asclepios KNIME nodes” (Bioorg Med Chem Lett, 2024).
The source made the active and inactive calls. No cut-off for these calls is given here.

Experiments:
Autotaxin [1] = biological target: T1, Autotaxin (Homo sapiens, UniProt Q13822); assay: Inhibition of human ATX by Amplex Red assay
Autotaxin [2] = biological target: T1, Autotaxin; assay: Inhibition of human ATX assessed as decrease in LPC hydrolysis upto 2.5 uM by Amplex Red assay
Autotaxin [3] = biological target: T1, Autotaxin; assay: Inhibition of human ATX assessed as decrease in LPC hydrolysis by Amplex Red assay
Autotaxin [4] = biological target: T1, Autotaxin; assay: Inhibition of human ATX at 100 uM by Amplex Red assay relative to control

IC50 (Autotaxin [1]) | inhibition (Autotaxin [2]) | inhibition (Autotaxin [3]) | inhibition (Autotaxin [4]) | SMILES
9.41 µM | Active | Active | 87% | O=C(CSc1nnc(-c2ccco2)o1)N1c2ccccc2Sc2ccc(Cl)cc21
2.53 µM | Active | Active | 85% | Cc1nc(Nc2cccc(C3CCCN3C(=O)c3n[nH]c4c3CCCC4)n2)sc1C (stereo not drawn)
